# According to ChEMBL document CHEMBL5678804 (Cancer Cell, 2011):
# Calls of active or inactive are those of the source. No cut-off for these calls is given here.
# Tests used:
# [1] = target: Serine/threonine-protein kinase DCLK2 (Homo sapiens, UniProt Q8N568); assay: Inhibition of human wild type DCamKL2 using RBER-CHKtide as substrate preincubated for 2 hrs followed by ATP addition and measured every 2 mins for […] by spectrophotometric analysis
# [2] = target: MAP kinase-activated protein kinase 2 (Homo sapiens, UniProt P49137); assay: Inhibition of human MK2 preincubated for 2 hrs followed by ATP addition and measured every 2 mins for […] by spectrophotometric analysis
# [3] = target: Serine/threonine-protein kinase WNK2 (Homo sapiens, UniProt Q9Y3S1); assay: Inhibition of human wild type WNK2 using RBER-CHKtide as substrate preincubated for 2 hrs followed by ATP addition and measured every 2 mins for […] by spectrophotometric analysis
# [4] = target: Tyrosine-protein kinase Fes/Fps (Homo sapiens, UniProt P07332); assay: Inhibition of human wild type FES using PolyEY as substrate preincubated for 2 hrs followed by ATP addition and measured every 2 mins for […] by spectrophotometric analysis
# [5] = target: Serine/threonine-protein kinase 25 (Homo sapiens, UniProt O00506); assay: Inhibition of human wild type STK25 using Casein as substrate preincubated for 2 hrs followed by ATP addition and measured every 2 mins for […] by spectrophotometric analysis
# [6] = target: Ephrin type-A receptor 6 (Homo sapiens, UniProt Q9UF33); assay: Inhibition of human wild type EPHA6 using PolyEY as substrate preincubated for 2 hrs followed by ATP addition and measured every 2 mins for […] by spectrophotometric analysis
# [7] = target: Ephrin type-B receptor 2 (Homo sapiens, UniProt P29323); assay: Inhibition of human wild type EPHB2 using PolyEY as substrate preincubated for 2 hrs followed by ATP addition and measured every 2 mins for […] by spectrophotometric analysis
# [8] = target: STE20-like serine/threonine-protein kinase (Homo sapiens, UniProt Q9H2G2); assay: Inhibition of human wild type SLK using RB-S6P as substrate preincubated for 2 hrs followed by ATP addition and measured every 2 mins for […] by spectrophotometric analysis
# [9] = target: CDK1/Cyclin A (Homo sapiens, UniProt P06493); assay: Inhibition of human wild type CDK1/cyclinA using RBER-CHKtide as substrate preincubated for 2 hrs followed by ATP addition and measured every 2 mins for […] by spectrophotometric analysis; assay type: protein-complex assay
# [10] = target: Serine/threonine-protein kinase Chk1 (Homo sapiens, UniProt O14757); assay: Inhibition of human wild type CHK1 using RBER-CHKtide as substrate preincubated for 2 hrs followed by ATP addition and measured every 2 mins for […] by spectrophotometric analysis
# [11] = target: Homeodomain-interacting protein kinase 1 (Homo sapiens, UniProt Q86Z02); assay: Inhibition of human wild type HIPK1 using RBER-CHKtide as substrate preincubated for 2 hrs followed by ATP addition and measured every 2 mins for […] by spectrophotometric analysis
# [12] = target: PAS domain-containing serine/threonine-protein kinase (Homo sapiens, UniProt Q96RG2); assay: Inhibition of human wild type PASK using RBER-CHKtide as substrate preincubated for 2 hrs followed by ATP addition and measured every 2 mins for […] by spectrophotometric analysis
# [13] = target: Serine/threonine-protein kinase Nek1 (Homo sapiens, UniProt Q96PY6); assay: Inhibition of human wild type NEK1 using RBER-CHKtide as substrate preincubated for 2 hrs followed by ATP addition and measured every 2 mins for […] by spectrophotometric analysis
# [14] = target: NUAK family SNF1-like kinase 2 (Homo sapiens, UniProt Q9H093); assay: Inhibition of human wild type SNARK using Histon H2B as substrate preincubated for 2 hrs followed by ATP addition and measured every 2 mins for […] by spectrophotometric analysis
# [15] = tested on: BaF3; assay: Antitumor activity against mouse BaF3 cells harbouring BCR-ABL1 T315I mutant xenografted in Balb/c mouse model assessed as reduction in leukemia cell burden in spleen at 100 mg/kg, po administered twice daily; assay type: functional, organism-based
# [16] = target: Beta-adrenergic receptor kinase 1 (Homo sapiens, UniProt P25098); assay: Inhibition of human wild type GRK2 using Casein as substrate preincubated for 2 hrs followed by ATP addition and measured every 2 mins for […] by spectrophotometric analysis
# [17] = target: Serine/threonine-protein kinase N1 (Homo sapiens, UniProt Q16512); assay: Inhibition of human wild type PKN1 using RBER-CHKtide as substrate preincubated for 2 hrs followed by ATP addition and measured every 2 mins for […] by spectrophotometric analysis
# [18] = target: Phosphorylase b kinase gamma catalytic chain, skeletal muscle/heart isoform (Homo sapiens, UniProt Q16816); assay: Inhibition of human wild type PHKgamma1 using 3xChocktide-PKC([…]-[…]) as substrate preincubated for 2 hrs followed by ATP addition and measured every 2 mins for […] by spectrophotometric analysis
# [19] = target: Tyrosine-protein kinase Srms (Homo sapiens, UniProt Q9H3Y6); assay: Inhibition of human wild type SRMS using PolyEY as substrate preincubated for 2 hrs followed by ATP addition and measured every 2 mins for […] by spectrophotometric analysis
# [20] = target: Tyrosine-protein kinase ABL1 (Homo sapiens, UniProt P00519); settings: Sf9, time 2.0 hrs
# [21] = target: Tyrosine-protein kinase ITK/TSK (Homo sapiens, UniProt Q08881); assay: Inhibition of human wild type ITK using PolyEY as substrate preincubated for 2 hrs followed by ATP addition and measured every 2 mins for […] by spectrophotometric analysis
# [22] = target: Myosin light chain kinase (Homo sapiens, UniProt Q32MK0); assay: Inhibition of human wild type MLCK using RB-S6P as substrate preincubated for 2 hrs followed by ATP addition and measured every 2 mins for […] by spectrophotometric analysis
# [23] = target: cGMP-dependent protein kinase 2 (Homo sapiens, UniProt Q13237); assay: Inhibition of human wild type PKG2 using RBER-GSK3(14to 27) as substrate preincubated for 2 hrs followed by ATP addition and measured every 2 mins for […] by spectrophotometric analysis
# [24] = target: Serine/threonine-protein kinase ULK2 (Homo sapiens, UniProt Q8IYT8); assay: Inhibition of human wild type ULK2 using Casein as substrate preincubated for 2 hrs followed by ATP addition and measured every 2 mins for […] by spectrophotometric analysis
# [25] = target: Insulin receptor-related protein (Homo sapiens, UniProt P14616); assay: Inhibition of human wild type IRR using Poly(Ala,Glu,Lys,Tyr)6:2:5:1 as substrate preincubated for 2 hrs followed by ATP addition and measured every 2 mins for […] by spectrophotometric analysis
# [26] = target: Non-receptor tyrosine-protein kinase TYK2 (Homo sapiens, UniProt P29597); assay: Inhibition of human wild type TYK2 using Poly(Ala,Glu,Lys,Tyr)6:2:5:1 as substrate preincubated for 2 hrs followed by ATP addition and measured every 2 mins for […] by spectrophotometric analysis
# [27] = target: cGMP-dependent protein kinase 1 (Homo sapiens, UniProt Q13976); assay: Inhibition of human wild type PKG1 alpha using 3xChocktide-PKC(19to 31) as substrate preincubated for 2 hrs followed by ATP addition and measured every 2 mins for […] by spectrophotometric analysis
# [28] = target: Cytoplasmic tyrosine-protein kinase BMX (Homo sapiens, UniProt P51813); assay: Inhibition of human wild type Bmx using PolyEY as substrate preincubated for 2 hrs followed by ATP addition and measured every 2 mins for […] by spectrophotometric analysis
# Chain of cGMP-dependent protein kinase 2 (Q13237 whole entry): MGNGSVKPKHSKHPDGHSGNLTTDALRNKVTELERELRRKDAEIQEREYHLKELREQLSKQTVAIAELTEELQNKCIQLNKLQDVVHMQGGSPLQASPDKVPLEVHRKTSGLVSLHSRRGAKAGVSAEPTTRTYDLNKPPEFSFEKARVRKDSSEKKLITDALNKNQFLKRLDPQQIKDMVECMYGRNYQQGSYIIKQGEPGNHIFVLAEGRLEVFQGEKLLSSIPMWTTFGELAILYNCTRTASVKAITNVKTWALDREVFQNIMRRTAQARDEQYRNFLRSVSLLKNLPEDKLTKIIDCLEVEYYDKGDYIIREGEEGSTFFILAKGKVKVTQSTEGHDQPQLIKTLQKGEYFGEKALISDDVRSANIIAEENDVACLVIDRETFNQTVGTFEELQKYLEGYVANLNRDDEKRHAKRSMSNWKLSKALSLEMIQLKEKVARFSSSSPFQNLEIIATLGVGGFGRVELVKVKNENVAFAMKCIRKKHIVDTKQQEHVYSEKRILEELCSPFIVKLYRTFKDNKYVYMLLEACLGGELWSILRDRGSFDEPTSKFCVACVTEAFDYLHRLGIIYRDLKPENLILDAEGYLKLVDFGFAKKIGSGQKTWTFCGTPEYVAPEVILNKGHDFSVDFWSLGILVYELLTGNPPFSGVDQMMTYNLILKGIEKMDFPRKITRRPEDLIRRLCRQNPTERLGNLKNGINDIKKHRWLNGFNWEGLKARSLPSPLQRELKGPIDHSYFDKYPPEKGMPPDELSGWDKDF
# Chain of cGMP-dependent protein kinase 1 (Q13976 whole entry): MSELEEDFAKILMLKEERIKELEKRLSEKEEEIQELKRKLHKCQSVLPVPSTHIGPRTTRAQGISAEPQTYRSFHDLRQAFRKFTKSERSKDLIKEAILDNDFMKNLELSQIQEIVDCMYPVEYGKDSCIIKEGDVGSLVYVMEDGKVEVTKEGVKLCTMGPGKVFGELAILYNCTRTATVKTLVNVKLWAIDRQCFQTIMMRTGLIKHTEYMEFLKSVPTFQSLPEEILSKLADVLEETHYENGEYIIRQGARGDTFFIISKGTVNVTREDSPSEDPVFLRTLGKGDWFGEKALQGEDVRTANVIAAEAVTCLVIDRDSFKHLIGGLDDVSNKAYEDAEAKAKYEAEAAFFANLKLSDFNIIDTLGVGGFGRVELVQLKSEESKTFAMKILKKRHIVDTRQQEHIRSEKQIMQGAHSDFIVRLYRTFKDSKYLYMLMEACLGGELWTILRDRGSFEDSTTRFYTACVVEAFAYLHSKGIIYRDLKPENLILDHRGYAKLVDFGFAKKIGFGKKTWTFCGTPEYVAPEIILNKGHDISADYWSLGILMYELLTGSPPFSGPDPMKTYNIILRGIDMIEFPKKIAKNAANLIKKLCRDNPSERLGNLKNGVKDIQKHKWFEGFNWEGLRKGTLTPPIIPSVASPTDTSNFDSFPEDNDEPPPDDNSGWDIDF
# Chain of PAS domain-containing serine/threonine-protein kinase (Q96RG2 whole entry, the tested form may be a part): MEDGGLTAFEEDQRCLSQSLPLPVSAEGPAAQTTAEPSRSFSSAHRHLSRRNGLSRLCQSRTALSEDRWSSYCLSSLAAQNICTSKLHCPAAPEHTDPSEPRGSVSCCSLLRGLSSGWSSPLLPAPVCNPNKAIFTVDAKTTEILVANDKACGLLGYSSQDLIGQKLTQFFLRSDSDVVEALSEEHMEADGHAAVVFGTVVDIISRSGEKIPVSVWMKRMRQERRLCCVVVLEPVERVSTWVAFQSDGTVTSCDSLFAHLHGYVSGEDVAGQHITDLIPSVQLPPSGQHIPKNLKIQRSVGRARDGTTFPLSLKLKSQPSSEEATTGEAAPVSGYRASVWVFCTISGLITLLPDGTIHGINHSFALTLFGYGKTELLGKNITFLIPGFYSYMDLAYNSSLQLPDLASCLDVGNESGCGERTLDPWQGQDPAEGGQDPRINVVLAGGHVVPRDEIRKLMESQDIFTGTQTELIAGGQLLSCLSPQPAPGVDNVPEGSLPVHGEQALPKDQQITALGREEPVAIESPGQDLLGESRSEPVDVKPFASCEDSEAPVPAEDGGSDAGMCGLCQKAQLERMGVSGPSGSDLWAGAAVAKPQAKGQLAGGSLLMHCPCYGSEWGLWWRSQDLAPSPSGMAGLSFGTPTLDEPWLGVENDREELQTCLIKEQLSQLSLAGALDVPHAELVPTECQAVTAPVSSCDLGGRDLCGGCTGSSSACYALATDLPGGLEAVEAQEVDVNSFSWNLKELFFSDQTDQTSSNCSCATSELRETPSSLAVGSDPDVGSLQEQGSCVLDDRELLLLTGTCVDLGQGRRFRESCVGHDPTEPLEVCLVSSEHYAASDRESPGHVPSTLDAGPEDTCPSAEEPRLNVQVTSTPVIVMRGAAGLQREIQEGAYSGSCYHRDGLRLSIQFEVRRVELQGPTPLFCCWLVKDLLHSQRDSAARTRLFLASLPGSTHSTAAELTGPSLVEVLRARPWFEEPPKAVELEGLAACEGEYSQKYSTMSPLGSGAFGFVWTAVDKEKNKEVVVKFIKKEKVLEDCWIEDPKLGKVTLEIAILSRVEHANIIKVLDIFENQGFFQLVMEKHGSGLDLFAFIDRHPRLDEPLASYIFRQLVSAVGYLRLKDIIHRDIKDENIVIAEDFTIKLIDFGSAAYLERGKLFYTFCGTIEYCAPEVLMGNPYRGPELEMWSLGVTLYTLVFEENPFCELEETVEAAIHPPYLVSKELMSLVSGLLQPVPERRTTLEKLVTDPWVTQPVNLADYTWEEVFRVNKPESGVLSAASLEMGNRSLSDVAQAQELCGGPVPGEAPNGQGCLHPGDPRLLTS
# Chain of Serine/threonine-protein kinase Nek1 (Q96PY6 whole entry): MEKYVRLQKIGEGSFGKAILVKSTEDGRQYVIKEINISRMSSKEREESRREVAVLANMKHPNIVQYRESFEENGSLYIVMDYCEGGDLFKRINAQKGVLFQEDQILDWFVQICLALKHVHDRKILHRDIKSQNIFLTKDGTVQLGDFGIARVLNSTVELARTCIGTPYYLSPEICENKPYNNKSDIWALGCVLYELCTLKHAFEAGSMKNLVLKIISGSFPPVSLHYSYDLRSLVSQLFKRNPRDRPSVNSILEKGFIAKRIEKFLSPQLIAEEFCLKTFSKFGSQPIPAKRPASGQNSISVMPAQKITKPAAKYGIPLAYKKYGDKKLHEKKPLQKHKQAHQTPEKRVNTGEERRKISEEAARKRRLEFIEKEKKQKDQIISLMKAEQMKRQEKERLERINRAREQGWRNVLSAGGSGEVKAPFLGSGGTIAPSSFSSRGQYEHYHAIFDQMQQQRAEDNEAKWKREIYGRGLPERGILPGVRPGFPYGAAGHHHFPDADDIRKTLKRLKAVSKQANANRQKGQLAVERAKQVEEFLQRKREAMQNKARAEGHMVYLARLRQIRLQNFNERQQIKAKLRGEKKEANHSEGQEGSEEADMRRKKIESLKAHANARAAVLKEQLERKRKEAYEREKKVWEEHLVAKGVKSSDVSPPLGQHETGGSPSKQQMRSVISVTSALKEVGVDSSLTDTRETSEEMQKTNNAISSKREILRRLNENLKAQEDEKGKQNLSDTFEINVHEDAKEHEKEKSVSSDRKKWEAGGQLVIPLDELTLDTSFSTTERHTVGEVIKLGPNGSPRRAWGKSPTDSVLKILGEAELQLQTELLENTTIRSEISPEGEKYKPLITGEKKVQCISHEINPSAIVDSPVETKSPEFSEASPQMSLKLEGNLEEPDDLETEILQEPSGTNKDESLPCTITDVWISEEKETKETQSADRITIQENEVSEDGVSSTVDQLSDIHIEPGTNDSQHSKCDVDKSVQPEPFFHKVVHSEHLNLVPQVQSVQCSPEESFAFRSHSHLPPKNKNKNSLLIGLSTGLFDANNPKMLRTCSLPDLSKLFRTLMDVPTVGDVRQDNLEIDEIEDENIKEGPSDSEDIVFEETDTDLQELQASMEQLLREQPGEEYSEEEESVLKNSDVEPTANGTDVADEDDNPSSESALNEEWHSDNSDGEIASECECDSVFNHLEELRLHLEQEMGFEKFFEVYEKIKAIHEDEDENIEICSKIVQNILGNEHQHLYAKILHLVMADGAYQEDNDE
# Chain of Ephrin type-B receptor 2 (P29323 whole entry): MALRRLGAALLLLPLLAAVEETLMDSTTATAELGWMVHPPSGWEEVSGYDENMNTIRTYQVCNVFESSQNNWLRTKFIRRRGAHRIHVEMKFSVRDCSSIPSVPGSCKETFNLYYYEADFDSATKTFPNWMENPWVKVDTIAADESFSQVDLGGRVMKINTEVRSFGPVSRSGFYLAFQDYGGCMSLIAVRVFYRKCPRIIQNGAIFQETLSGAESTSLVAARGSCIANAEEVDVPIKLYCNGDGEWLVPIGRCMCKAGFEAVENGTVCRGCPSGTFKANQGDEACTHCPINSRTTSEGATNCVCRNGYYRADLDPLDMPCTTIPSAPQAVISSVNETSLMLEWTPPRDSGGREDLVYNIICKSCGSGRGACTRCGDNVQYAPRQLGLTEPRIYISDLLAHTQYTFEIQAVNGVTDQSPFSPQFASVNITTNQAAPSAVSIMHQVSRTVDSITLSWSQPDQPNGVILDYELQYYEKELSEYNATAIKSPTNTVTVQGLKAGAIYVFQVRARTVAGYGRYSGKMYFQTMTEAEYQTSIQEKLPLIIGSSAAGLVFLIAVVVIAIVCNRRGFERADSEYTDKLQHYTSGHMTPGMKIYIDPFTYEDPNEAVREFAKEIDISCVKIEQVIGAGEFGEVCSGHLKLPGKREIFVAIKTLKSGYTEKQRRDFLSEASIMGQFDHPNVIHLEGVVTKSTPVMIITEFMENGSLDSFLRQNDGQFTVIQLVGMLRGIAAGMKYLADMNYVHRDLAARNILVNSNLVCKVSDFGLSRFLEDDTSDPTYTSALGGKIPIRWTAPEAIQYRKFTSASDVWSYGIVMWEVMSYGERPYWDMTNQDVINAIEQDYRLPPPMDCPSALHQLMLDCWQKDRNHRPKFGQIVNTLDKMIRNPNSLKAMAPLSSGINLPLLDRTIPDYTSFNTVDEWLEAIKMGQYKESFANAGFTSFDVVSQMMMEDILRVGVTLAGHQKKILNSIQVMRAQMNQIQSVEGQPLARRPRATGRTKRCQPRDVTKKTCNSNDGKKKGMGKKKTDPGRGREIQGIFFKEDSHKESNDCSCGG
smiles,measurement,setting,value
CNC(=O)c1cc(Oc2ccc(NC(=O)Nc3cc(C(C)(C)C)nn3-c3ccc4ncccc4c3)c(F)c2)ccn1 [REBASTINIB],IC50,[1],> 1 µM
same,IC50,[2],> 1 µM
same,IC50,[3],> 1 µM
same,IC50,[4],0.16 µM
same,IC50,[5],> 1 µM
same,IC50,[6],0.017 µM
same,IC50,[7],0.31 µM
same,IC50,[8],0.67 µM
same,IC50,[9],> 1 µM
same,IC50,[10],> 1 µM
same,IC50,[11],> 1 µM
same,IC50,[12],> 1 µM
same,IC50,[13],> 1 µM
same,IC50,[14],> 1 µM
same,Activity,[15],Active
same,IC50,[16],> 1 µM
same,IC50,[17],> 1 µM
same,IC50,[18],> 1 µM
same,IC50,[19],0.37 µM
same,Kdiss,[20],3.33e-05 s⁻¹
same,IC50,[21],0.27 µM
same,IC50,[22],> 1 µM
same,IC50,[23],> 1 µM
same,IC50,[24],0.32 µM
same,IC50,[25],> 1 µM
same,IC50,[26],> 1 µM
same,IC50,[27],> 1 µM
same,IC50,[28],0.2 µM
